Test results from patent publication US20140357713A1, “ANTIMICROBIAL COMPOUNDS AND METHODS OF USE” (NexMed Holdings, Inc., priority 2012, published 2014).
Counter-ions that a name gives are not always drawn. Like-named read-outs stand apart in the source and are kept apart here.

What was measured:
[1] = Solubility (Sol., Table 1); format: physicochemical
[2] = pH (Table 1); format: physicochemical
[3] = test system: Escherichia coli (ATCC 25922); experiment: Minimum inhibitory concentration (MIC) assay, Example 33; format: cell-based; conditions: Escherichia coli
Outline: (§1)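 Colonies re-streaked twice on agar (20 to 24 hrs, 35±2° C) supplied inoculum adjusted to 0.5 McFarland, diluted 1:100 into medium, then added 1:2 to CAMHB wells holding 2-fold compound dilutions. After incubation at 35° C, MIC was recorded per CLSI.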

[4] = test system: Pseudomonas aeruginosa (ATCC 27853); experiment: as above; format: cell-based; conditions: Pseudomonas aeruginosa
Outline: as §1

[5] = test system: Staphulococcus aureus (ATCC 29213); experiment: as above; format: cell-based, Staphylococcus aureus; conditions: Staphylococcus aureus
Outline: as §1

[6] = test system: Candida albicans (ATCC 90029); experiment: as above; format: cell-based; conditions: Candida albicans
Outline: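 MIC read per CLSI after incubation at 35° C. Colonies in RPMI 1640 adjusted to OD530 0.08–0.13, diluted 1:50 and 1:20 to twice test density, then added 1:2 to wells holding 2-fold serial drug dilutions in RPMI 1640 (CLSI microdilution).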

[7] = test system: Aspergillus niger (CMCC 98003); experiment: as above; format: cell-based; conditions: for MIC: Aspergillus niger; for MIC Aspergillus niger: n = 2
Outline: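 Conidia gently probed from sporulating colonies into RPMI 1640, set to 0.09-0.13 at 530 nm, then diluted 1:50 and mixed 1:2 with 2-fold serially diluted compounds. Following CLSI guidelines, incubation was at 35 °C before the MIC was recorded.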

[8] = test system: Candida albicans (ATCC 90029); experiment: Time kill study, Example 33 (0 to 5 min); format: cell-based; conditions: 1×MIC
Outline: (§2)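 CLSI time-kill: suspension + compound solution, 1:1 by volume. Sampled 0 min, 30 sec, 1 min, 5 mins; diluted in test medium, streaked on agar. Colonies counted at 24 to 48 hrs; read-out Log10 CFU/mL.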

[9] = test system: Escherichia coli (ATCC 25922); experiment: Time kill study, Example 33 (0 to 5 min); format: cell-based; conditions: 1×MIC
Outline: as §2

[10] = test system: Pseudomonas aeruginosa (ATCC 27853); experiment: Time kill study, Example 33 (0 to 5 min); format: cell-based; conditions: 1×MIC
Outline: as §2

[11] = test system: Staphylococcus aureus (ATCC 29213); experiment: Time kill study, Example 33 (0 to 5 min); format: cell-based; conditions: 1×MIC
Outline: as §2

[12] = test system: Aspergillus niger (CMCC 98003); experiment: Time kill study, Example 33 (0 to 5 min); format: cell-based; conditions: 1×MIC
Protocol: Thirty compounds were tested for antimicrobial activity using standard procedures and standard strains for both the minimum inhibitory concentration (MIC) assay and a time kill study. Both the MIC assay and the time kill study were performed according to Clinical and Laboratory Standards Institute (CLSI) guidelines. Three bacteria strains, Escherichia coli (ATCC 25922), Pseudomonas aeruginosa (ATCC 27853), Staphulococcus aureus (ATCC 29213), and two fungus strains, Candida albicans (ATCC 90029) and Aspergillus niger (CMCC 98003), were used in the experiments.
The viable counts in Log10 CFU/mL at each time point were recorded.
Time kill studies. Strain suspensions were prepared as described above for the MIC test, and strain suspensions and compound solutions were mixed in the same volume. Samples were removed at specified times including 0 min, 30 sec, 1 min and 5 mins, were diluted in the test medium and streaked on agar. Colonies were counted after 24 to 48 hrs of incubation.
The MIC values for thirty compounds against Escherichia coli, Pseudomonas aeruginosa, Staphulococcus aureus, Candida albicans, and Aspergillus niger were recorded and are presented in Table 3 and Table 4.

[13] = ATCC25922, Table 19 summary of Example 33 and Example 35
[14] = ATCC25922, read-out: MIC E. coli, n = 1
[15] = ATCC25922, read-out: MIC E. coli, n = 2
[16] = ATCC27853, read-out: MIC P. aeruginosa, n = 1
[17] = ATCC27853, read-out: MIC P. aeruginosa, n = 2
[18] = ATCC29213, read-out: MIC S. aureus, n = 1
[19] = ATCC29213, read-out: MIC S. aureus, n = 2
[20] = ATCC90029, read-out: MIC Candida albicans, n = 1
[21] = ATCC90029, read-out: MIC Candida albicans, n = 2
[22] = CMCC98003, read-out: MIC Aspergillus niger

Row | SMILES | melting point [°C] | Sol. [1] [%] | pH [2] | MIC [3, 13] [µg/mL] | MIC [3, 14] [µg/mL] | MIC [3, 15] [µg/mL] | MIC ([4]; ATCC27853, Table 19 summary) [µg/mL] | MIC [4, 16] [µg/mL] | MIC [4, 17] [µg/mL] | MIC ([5]; ATCC29213, Table 19 summary) [µg/mL] | MIC [5, 18] [µg/mL] | MIC [5, 19] [µg/mL] | MIC ([6]; ATCC90029, Table 19 summary) [µg/mL] | MIC [6, 20] [µg/mL] | MIC [6, 21] [µg/mL] | MIC ([7]; CMCC98003) [µg/mL] | MIC [7, 22] [µg/mL] | MIC Aspergillus niger [7] [µg/mL] | Viable counts, Candida albicans time kill study ([8]; 0.5 min) [Log10 CFU/mL] | Viable counts, Candida albicans time kill study ([8]; 1 min) [Log10 CFU/mL] | other results
1 | CCCCCCCCCCCCOC(=O)C(C)N(C)C (centres unmarked) (as salt: methanesulfonate) [Nex-22, Dodecyl 2-(dimethylamino)propanoate methanesulfonate] | 66 to 72 |  |  |  |  |  |  |  |  |  |  |  |  |  |  |  |  |  |  |  | 
2 | CCCCCCCCCCCCOC(=O)C(C)(C)N(C)C (as salt: hydrochloride) [Nex-58, Dodecyl 2-(dimethylamino)-2-methylpropanoate hydrochloride] | 68 to 74 |  |  |  |  |  |  |  |  |  |  |  |  |  |  |  |  |  |  |  | 
3 | CCCCCCCCOC(=O)C(C)N(C)C (centres unmarked) [Nex-70, Octyl 2-(dimethylamino)propanoate hydrochloride] |  | 134 | 0.88 | 780 | 780 | 780 | 3130 | 3130 | 3130 | 3130 | 3130 | 3130 | 780 | 780 | 780 | 12500 | 12500 | 12500 | 5.53 | 5.51 | Viable counts, Candida albicans time kill study ([8]; 5 min): 5.49 Log10 CFU/mL; Viable counts, Candida albicans time kill study ([8]; time 0): 5.55 Log10 CFU/mL; Viable counts, Escherichia coli time kill study ([9]; 0.5 min): <4.0 Log10 CFU/mL; Viable counts, Escherichia coli time kill study ([9]; 1 min): <3.70 Log10 CFU/mL; Viable counts, Escherichia coli time kill study ([9]; 5 min): <3.52 Log10 CFU/mL; Viable counts, Escherichia coli time kill study ([9]; time 0): 5.0 Log10 CFU/mL; Viable counts, Pseudomonas aeruginosa time kill study ([10]; 0.5 min): <4.0 Log10 CFU/mL; Viable counts, Pseudomonas aeruginosa time kill study ([10]; 1 min): <3.70 Log10 CFU/mL; Viable counts, Pseudomonas aeruginosa time kill study ([10]; 5 min): <3.52 Log10 CFU/mL; Viable counts, Pseudomonas aeruginosa time kill study ([10]; time 0): 5.62 Log10 CFU/mL; Viable counts, Staphylococcus aureus time kill study ([11]; 0.5 min): 6.42 Log10 CFU/mL; Viable counts, Staphylococcus aureus time kill study ([11]; 1 min): 6.37 Log10 CFU/mL; Viable counts, Staphylococcus aureus time kill study ([11]; 5 min): 6.22 Log10 CFU/mL; Viable counts, Staphylococcus aureus time kill study ([11]; time 0): 6.37 Log10 CFU/mL
4 | CCCCCCCCCCOC(=O)C(C)N(C)C (centres unmarked) [Nex-68, Decyl 2-(dimethylamino)propanoate hydrochloride] |  | 97 | 0.87 | 780 | 780 | 1560 | 3130 | 3130 | 3130 | 3130 | 3130 | 3130 | 390 | 390 | 200 | 3130 | 3130 | 3130 | 5.35 | 5.15 | Viable counts, Candida albicans time kill study ([8]; 5 min): 5.13 Log10 CFU/mL; Viable counts, Candida albicans time kill study ([8]; time 0): 5.47 Log10 CFU/mL; Viable counts, Escherichia coli time kill study ([9]; 0.5 min): 5.53 Log10 CFU/mL; Viable counts, Escherichia coli time kill study ([9]; 1 min): 4.3 Log10 CFU/mL; Viable counts, Escherichia coli time kill study ([9]; 5 min): <3.52 Log10 CFU/mL; Viable counts, Escherichia coli time kill study ([9]; time 0): 5.88 Log10 CFU/mL; Viable counts, Pseudomonas aeruginosa time kill study ([10]; 0.5 min): 5.18 Log10 CFU/mL; Viable counts, Pseudomonas aeruginosa time kill study ([10]; 1 min): 4.88 Log10 CFU/mL; Viable counts, Pseudomonas aeruginosa time kill study ([10]; 5 min): 4.87 Log10 CFU/mL; Viable counts, Pseudomonas aeruginosa time kill study ([10]; time 0): 5.78 Log10 CFU/mL; Viable counts, Staphylococcus aureus time kill study ([11]; 0.5 min): 5.82 Log10 CFU/mL; Viable counts, Staphylococcus aureus time kill study ([11]; 1 min): 5.88 Log10 CFU/mL; Viable counts, Staphylococcus aureus time kill study ([11]; 5 min): 5.57 Log10 CFU/mL; Viable counts, Staphylococcus aureus time kill study ([11]; time 0): 6.39 Log10 CFU/mL; Viable counts, Aspergillus niger time kill study ([12]; 0.5 min): 5.25 Log10 CFU/mL; Viable counts, Aspergillus niger time kill study ([12]; 1 min): 5.25 Log10 CFU/mL; Viable counts, Aspergillus niger time kill study ([12]; 5 min): 5.25 Log10 CFU/mL; Viable counts, Aspergillus niger time kill study ([12]; time 0): 5.25 Log10 CFU/mL
5 | CCCCCCCCCCCC(C)OC(=O)C(C)N(C)C (centres unmarked) (as salt: hydrochloride) [Nex-64, Tridecan-2-yl 2-(dimethylamino)propanoate hydrochloride] | 88 to 94 |  |  |  |  |  |  |  |  |  |  |  |  |  |  |  |  |  |  |  | 
6 | CCCCCCCCCCCCOC(=O)C(C)N(C)C (centres unmarked) (as salt: salt) [Nex-46, Dodecyl 2-(dimethylamino)propanoate 2-hydroxyethanesulfonate] | 58 to 63 |  |  |  |  |  |  |  |  |  |  |  |  |  |  |  |  |  |  |  | 
7 | CCCCCCCCCCCCOC(=O)C(C)N(C)C (centres unmarked) (as salt: salt) [Nex-30, Dodecyl 2-(dimethylamino)propanoate ethanesulfonate] | 45 to 50 |  |  |  |  |  |  |  |  |  |  |  |  |  |  |  |  |  |  |  | 
8 | CCCCCCCCCCCCOC(=O)C(C)N(C)C (centres unmarked) (as salt: maleate) [Nex-20, Dodecyl 2-(dimethylamino)propanoate maleate] | 65 to 70 |  |  |  |  |  |  |  |  |  |  |  |  |  |  |  |  |  |  |  | 
9 | CCCCCCCCCCCCOC(=O)CN(C)C [Nex-52, Dodecyl 2-(dimethylamino)acetate hydrochloride] |  | 49 | 3.30 | 1560 | 1560 | 1560 | 6250 | 6250 | 6250 | 200 | 200 | 100 | 50 | 50 | 50 | 3130 | 3130 | 3130 | 5.19 | 5.17 | Viable counts, Candida albicans time kill study ([8]; 5 min): 5.23 Log10 CFU/mL; Viable counts, Candida albicans time kill study ([8]; time 0): 5.24 Log10 CFU/mL; Viable counts, Escherichia coli time kill study ([9]; 0.5 min): 6.12 Log10 CFU/mL; Viable counts, Escherichia coli time kill study ([9]; 1 min): 5.86 Log10 CFU/mL; Viable counts, Escherichia coli time kill study ([9]; 5 min): 5.24 Log10 CFU/mL; Viable counts, Escherichia coli time kill study ([9]; time 0): 5.95 Log10 CFU/mL; Viable counts, Pseudomonas aeruginosa time kill study ([10]; 0.5 min): 4.7 Log10 CFU/mL; Viable counts, Pseudomonas aeruginosa time kill study ([10]; 1 min): 4 Log10 CFU/mL; Viable counts, Pseudomonas aeruginosa time kill study ([10]; 5 min): <3.52 Log10 CFU/mL; Viable counts, Pseudomonas aeruginosa time kill study ([10]; time 0): 5.56 Log10 CFU/mL; Viable counts, Staphylococcus aureus time kill study ([11]; 0.5 min): 6.27 Log10 CFU/mL; Viable counts, Staphylococcus aureus time kill study ([11]; 1 min): 6.12 Log10 CFU/mL; Viable counts, Staphylococcus aureus time kill study ([11]; 5 min): 6.13 Log10 CFU/mL; Viable counts, Staphylococcus aureus time kill study ([11]; time 0): 6.26 Log10 CFU/mL; Viable counts, Aspergillus niger time kill study ([12]; 0.5 min): 5.28 Log10 CFU/mL; Viable counts, Aspergillus niger time kill study ([12]; 1 min): 5.28 Log10 CFU/mL; Viable counts, Aspergillus niger time kill study ([12]; 5 min): 4.95 Log10 CFU/mL; Viable counts, Aspergillus niger time kill study ([12]; time 0): 5.30 Log10 CFU/mL
